From patent US7122528B2, “Use of 5-substituted nucleosides and/or prodrugs thereof in the resistance-free treatment of infectious diseases” (RESPROTECT GmbH, priority 2001, dated 2006) come the findings set out here.

Like-named read-outs stand apart in the source and are kept apart here.

For data set [1], the system named is E. coli J53 (RP4) strains. Nature of the data set: Determination of minimal inhibitory concentrations (MIC) of Kanamycin or Amikacin on starter, adapted and BVDU-pretreated strains. It is filed as cell-based, Escherichia coli. The following applies: for MIC: Escherichia coli. An excerpt: In order to determine the minimal inhibitory concentrations (MIC), precultures were used initially for which antibiotic-free culture medium had been inoculated directly from frozen glycerine cultures. […] However even higher antibiotic concentrations still led to the growth of the inoculum. However, the growth inhibition prevented a larger cell density in the bacteria culture being reached.
In order to test the stability of the specific resistance features of the E. coli strains, the MIC determination was repeated. The already tested precultures were again absorbed for this purpose in antibiotic-free culture medium and tested for their Kanamycin resistance. The resistance spectra of the starter strain and of the strain adapted to 64 μg/ml remained unchanged. […] The results are illustrated in FIG. 4.
The results can be deduced from FIG. 6.
(§1) In order to determine the minimal inhibitory concentrations (MIC) of Kanamycin or Amikacin relative to aminoglycoside/BVDU-pretreated E coli J53 (RP4) strains, standard precultures were used which contained no additives in the culture medium (recovery phase). In addition, it was tested in comparative experiments to what extent the addition of BVDU to the antibiotic-free precultures changes the resistant spectrum of the strains.

Data set [2] concerns Escherichia coli J53 (RP4). Nature of the data set: Growth tests: adaptation (resistance development) to aminoglycoside antibiotic with or without BVDU. It counts as cell-based. The text has this:
Escherichia coli J53 was used as Gram-negative model organism in order to test the effectiveness of BVDU. This organism carries the naturally occurring plasmid RP4, on which resistances to Ampicillin, Tetracycline and Kanamycin are encoded.
The results are illustrated in FIGS. 1 and 2.

The next data set deals with Leidshmania donovanii. Nature of the data set: Prevention of methotrexate resistance development in Leishmania by gradual increase in MTX concentration. It is filed as cell-based. The method, then:
Prevention of resistance development in Zooflagellates (Leishmania) by the simultaneous administration of the anti-recombinogenic 5-substituted nucleoside (E)-5-(2-bromovinyl)2′-deoxyuridines (BVDU) with methotrexate.
Methotrexate (MTX) resistant cells of Leidshmania donovanii were produced by gradual increase in the MTX concentrations of 5 to 10, of 10 to 50 and of 50 to 100 μm MTX. 5×10^6 cells/ml respectively were seeded in the growth medium. The cells were diluted again to 5×10^6 cells/ml for each new batch. The cells were then constantly subjected to the next higher MTX concentration when the cell division rate of the MTX-subjected cells had stabilised to the control level. […] The result of this test can be seen in a simplified version in FIGS. 9 and 10.

The test system of data set [3] is aminoglycoside/BVDU-pretreated E coli J53 (RP4) strains. Nature of the data set: BVDU conditioned growth inhibition after aminoglycoside/BVDU pretreatment. It counts as cell-based, Escherichia coli. The method, then: as §1
In comparison therewith, the growth without antibiotic in the additive-free preculture corresponded to that of the untreated E. coli strain. The results are illustrated in FIGS. 7 and 8.

Where [4] appears, read: 1 μg/ml BVDU added simultaneously with MTX.

On to `NCC[C@H](O)C(=O)N[C@@H]1C[C@H](N)[C@@H](O[C@H]2O[C@H](CN)[C@@H](O)[C@H](O)[C@H]2O)[C@H](O)[C@H]1O[C@H]1O[C@H](CO)[C@@H](O)[C@H](N)[C@H]1O` [Amikacin], for which the MIC in data set [1] (strain which had become resistant to 0.25 μg/ml Amikacin, read-out: MIC of Amikacin) came out at 2 µg/mL. In data set [1] (strain grown in the presence of 2 μg/ml BVDU (no resistance to 0.25 μg/ml Amikacin)), the “Amikacin concentration from which growth inhibition was shown” value came out at 0.125 µg/mL. In addition, the “increase of Amikacin MIC relative to the starter strain” value in data set [1] (strain which had become resistant to 0.25 μg/ml Amikacin) was “eight times increased”. Besides, the “adaptation, i.e. resistance development, to the antibiotic” value in data set [2] (Amikacin 0.25 μg/ml alone, E coli J53 (RP4)) is “slow adaptation, i.e. resistance development”.
On to `O=c1[nH]c(=O)n([C@H]2C[C@H](O)[C@@H](CO)O2)cc1/C=C/Br` [BVDU, (E)-5-(2-bromovinyl)-2-deoxyuridines], for which, in the data set on Leidshmania donovanii (setting [4]), the “cell division rate relative to control level” value was “never reached the control level” and the “resistance development to MTX treatment” value was “no resistance to the treatment”. In addition, the “growth of aminoglycoside/BVDU-pretreated E. coli strains in the absence of the antibiotic” value in data set [3] (BVDU 1 or 2 μg/ml in the preculture or/and 0.04–0.05 μg/ml in the MIC batches) is listed as “sustained restriction of the growth”. Moreover, in data set [3] (no pretreatment), the “effect of BVDU without pretreatment (antibiotic+BVDU)” value is given as “no effect” and the “toxicity of BVDU without pretreatment” value is “not toxic”. Moreover, the “effect on resistance development/adaptation to Kanamycin” value in data set [2] (BVDU 1 μg/ml in presence of Kanamycin 64 μg/ml, E. coli J53 (RP4)) is on record as “inhibition of this resistance development/adaptation”. In addition, in data set [2] (BVDU 2 μg/ml in presence of Amikacin 0.25 μg/ml, E coli J53 (RP4)), the “effect on adaptation to Amikacin” value is recorded as “inhibition of this adaptation”.
For the compound `NC[C@H]1O[C@H](O[C@H]2[C@H](O)[C@@H](O[C@H]3O[C@H](CO)[C@@H](O)[C@H](N)[C@H]3O)[C@H](N)C[C@@H]2N)[C@H](O)[C@@H](O)[C@@H]1O` [Kanamycin], the MIC in data set [1] (strain pretreated with 64 μg/ml Kanamycin + 1 μg/ml BVDU, repeated MIC determination, read-out: Kanamycin concentration from which growth of the inoculum was completely prevented (MIC)) stood at 32 µg/mL; in data set [1] (strain which had become resistant to 64 μg/ml Kanamycin, read-out: MIC of Kanamycin), 128 µg/mL. Further, in data set [1] (strain grown in the presence of 1 μg/ml BVDU (no resistance to 64 μg/ml Kanamycin), first MIC determination), the “Kanamycin concentration from which growth inhibition was shown” value is 16 µg/mL.
Consider `CN(Cc1cnc2nc(N)nc(N)c2n1)c1ccc(C(=O)N[C@@H](CCC(=O)O)C(=O)O)cc1` [MTX, Methotrexate], for which the “passages until cell division rate stabilised to the control level” value with Leidshmania donovanii (MTX alone, steps 5 to 10, 10 to 50, 50 to 100 μm MTX) was “approximately three to four passages”.
